Experimental data published in US8540983B2, “Debriding composition from bromelain and methods of production thereof” (MediWound Ltd., priority 2004, dated 2013).

Tested on: Debrase esterolytic activity
Assay: Esterolytic activity of Debrase (CLN substrate) and its inhibition by bromelain HPLC fractions
Assay type: biochemical, Ananas comosus
Details: Debrase + 1 mM Iodoacetamide, pH 4.6
Method: Bromelain powder (2.5 g) was suspended in 10 ml of 0.1M potassium phosphate buffer pH 6.1 saturated with phenyl mercury acetate for 10 min. After centrifugation for 10 min (3500 rpm), one ml of the supernatant was applied to gel filtration chromatography on a HiLoad 16/60 Superdex 75 HPLC preparation grade column, equilibrated and eluted with the same buffer. Fractions of 5 ml were collected 30 minutes after sample application. For each of the eluted fractions, three parameters were measured: (i) absorbance at 280 nm (A280); (ii) esterolytic activity; and (iii) inhibition of Debrase esterolytic activity.
The esterolytic activity of the bromelain fractions was assayed spectrophotometrically at pH 4.6 using the chromogenic substrate p-nitrophenyl Na-benzyloxycarbonyl-L-lysinate (CLN) as follows:
One milliliter of sodium acetated buffer (10 mM) containing 0.1 M KCl and 1 mM L-cysteine, pH 4.6 was placed in a plastic cuvette at 25° C. One hundred μl of the eluted fraction (at a concentration of 2.5 mg/ml) were added. The solution was incubated for 2 min and then 50 μl of CLN solution (2.5 mM in acetonitrile 10% water) were added. The cuvette was mixed and the increase in absorbance at 317 nm was monitored for 5 minutes. The spontaneous hydrolysis of the substrate was monitored in the presence of buffer only instead of the eluted fractions.

## NC(=O)CI [Iodoacetamide]
  % Inhibition: 37.0%
  Proteolytic activity (esterolytic activity of Debrase): 593
